Experimental data from US11133139B2, “Use of 1-chloro-2,3,3,3-tetrafluoropropene for isolating or extinguishing electric arcs” (Arkema France, priority 2018, dated 2021).

What was measured:
[1] = Dielectric strength measurement in a homogeneous field, relative to SF6; type: physicochemical
Method: The results are as follows, expressed in a relative manner as percentage of the dielectric strength of the reference gas SF6: • HCFO-1224yd(Z): 178%.
Its dielectric strength values (with an interelectrode distance of 12 mm) is then as follows, still with respect to SF6: • HCFO-1224yd(Z) at 17° C.: 159%.

[2] = Toxicity (statement, no method)
[3] = Flammability, thermal stability, saturated vapor pressure / condensation; type: physicochemical
[4] = prior art statement; cited from earlier work
[5] = prior art statement; cited from earlier work; remark: listed apart in the source

## O=C=O [CO2, carbon dioxide, reference compound]
[1]; −15° C., 1.14 bar
  dielectric strength as % of that of SF6: 51%

## FC(=CCl)C(F)(F)F [HCFO-1224yd(Z), 1-chloro-2,3,3,3-tetrafluoropropene]
[1]; 20° C., 1.3 bar, homogeneous field, interelectrode distance 12 mm
  dielectric strength as percentage of the dielectric strength of the reference gas SF6: 178%
[1]; pure state, 17° C., 1.14 bar, interelectrode distance 12 mm
  dielectric strength with respect to SF6: 159%
[2]
  toxicity: very low level of toxicity
[3]
  flammability: nonflammable
  thermal stability: thermally stable
[3]; pressure of 1.14 bar
  minimum temperature of use in the pure state without condensation: 17 °C
[3]; −15° C.
  saturated pressure: 0.29 bar

## FS(F)(F)(F)(F)F [SF6, sulfur hexafluoride]
[4]
  toxicity (background): nontoxic to man and animals
[5]
  flammability (background): nonflammable

## FC(F)(F)I [trifluoroiodomethane]
[4]
  toxicity (background): category-3 carcinogenic, mutagenic and reprotoxic substances
